≈ marks a conversion by molar mass, not a printed value. Where two headings read alike, the source gives them in different places.
Experiments:
A1G and MMG cell lines = assay: Total cellular cholesterol content (Amplex Red) after zaragozic acid treatment; assay type: cell-based, Chinese hamster; details: 10 µM ZA in ΔFBS medium 16 h, compared with non-ZA-treated cells cultured in ΔFBS medium
Protocol: To lower the cholesterol content in the cells, A1G and MMG cell lines were seeded at either 1 × 10^4 cells/well in a 96-well plate (cytotoxicity) or 4 × 10^5 cells/well (cholesterol content) in a 6-well plate in complete Ham’s F-12 medium for 8 h to allow the cells to attach to the plate. Cells were then washed three times with Ham’s F-12 medium supplemented with delipidated serum (Biowest) (ΔFBS medium) and incubated with 10 µM zaragozic acid (ZA) in ΔFBS medium for 16 h at 37 °C, 5% CO2. […]
The cells were harvested, washed three times with PBS and lysed with RIPA buffer (25 mM HEPES, pH 7.4, 150 mM NaCl, 1% NP40, 10 mM MgCl2, 1 mM EDTA, 2% glycerol, protease and phosphatase inhibitor cocktail) for 30 min on ice. […] Total cellular cholesterol level was determined enzymatically by cholesterol oxidase using the Amplex Red Cholesterol Assay Kit (Thermo Fisher Scientific) according to the manufacturer’s recommendations. […] The protein concentration was measured by BCA Assay Kit (Sigma-Aldrich). […] Fluorescence was measured using excitation at 560 nm and emission detection at 590 nm with a Cary Eclipse fluorescence microplate reader (Agilent Technologies). […] The final cholesterol content was calculated in ng of cholesterol per µg of protein.

MMG cells [1] = assay: [3H]-cholesterol efflux to AmB as acceptor in MMG cells; assay type: cell-based, Chinese hamster; details: 20 µg/mL AmB
Protocol: (§1) The [^3H]-cholesterol efflux protocol was adapted from Yang and Gelissen. Briefly, A1G and MMG cells were seeded in 0.5 mL of complete Ham’s F12 medium at 5 × 10^4 cells/well in 24-well plates and grown overnight at 37 °C, 5% CO2. The next day, the cell culture medium was replaced either with 0.25 mL of complete Ham’s F12 medium or complete Ham’s F12 medium containing 1 µCi/mL of [^3H]-cholesterol (Perkin Elmer) and incubated for 24 h at 37 °C, 5% CO2. On the last day, the cell medium was removed, and the cells were washed three times with PBS buffer (with intermediate 15 min incubation in PBS buffer). Afterwards, cells were incubated for 3 h in 0.25 mL of complete Ham’s F12 medium containing (or not, in controls) 20 µg/mL of AmB at 37 °C, 5% CO2. […] One hundred fifty microliters of each of cell medium and cell lysate were added to 5 mL of Ecolite + scintillation cocktail (MPBIO) and radioactivity was counted in CPM mode using a Beckman LS analyzer (Beckman Coulter). After subtraction of background radioactivity, the percentage of [^3H]-cholesterol efflux was calculated according to the formula: (CPM in media)/[(CPM in media) + (CPM in cells)].

A1G cells [2] = assay: [3H]-cholesterol efflux to AmB as acceptor in A1G cells; assay type: cell-based, Chinese hamster; details: 20 µg/mL AmB
Protocol: as §1

MMG cells [3] = assay: AmB cytotoxicity, MTT assay in MMG cells (CHO-K1 stably expressing non-active ABCA1MM-GFP); assay type: cell-based, Chinese hamster; details: Cricetulus griseus, ± SE
Protocol: (§2) A1G and MMG cell lines, mock and GW3965-treated macrophages were seeded in triplicate in 96-well plates at 1 × 10^4 cells/well for CHO cells and 2 × 10^4 cells for Raw 264.7 macrophages and incubated in complete Ham’s F-12 medium at 37 °C, 5% CO2 overnight to allow the cells to attach to the plate. […] For probucol treatment, the cells were preincubated with 10 µM probucol in complete Ham’s F-12 medium at 37 °C, 5% CO2 for 2 h. Then, the medium was removed and AmB was added in different concentrations (from 0 to 40 µg/mL) in complete Ham’s F-12 medium containing 10 µM probucol and cells were incubated for additional 3 h at 37 °C, 5% CO2. After incubation, the medium was removed and 3-[4,5-dimethylthiazol-2-yl]-2,5-diphenyltetrazolium bromide (MTT, 0.5 mg/mL, Sigma-Aldrich) in complete Ham’s F-12 was added. Cells were incubated for 4 h at 37 °C, then MTT was removed carefully and the formazan crystals were dissolved in DMSO. Plates were shaken for 10 min before reading them on a UVM 340 microplate reader (Biogenet) at 550 nm with a reference wavelength of 630 nm. The cell viability was estimated as the percentage of the control, which was the cells untreated with any agents (100%).
(§3) To lower the cholesterol content in the cells, A1G and MMG cell lines were seeded at either 1 × 10^4 cells/well in a 96-well plate (cytotoxicity) or 4 × 10^5 cells/well (cholesterol content) in a 6-well plate in complete Ham’s F-12 medium for 8 h to allow the cells to attach to the plate. Cells were then washed three times with Ham’s F-12 medium supplemented with delipidated serum (Biowest) (ΔFBS medium) and incubated with 10 µM zaragozic acid (ZA) in ΔFBS medium for 16 h at 37 °C, 5% CO2. To reload the plasma membrane with cholesterol, cells after ZA treatment were washed three times with ΔFBS medium and incubated with 100 µM cholesterol–1 mM methyl-β-cyclodextrin complex in ΔFBS medium for 30 min at 37 °C, 5% CO2. As a control, cells were incubated for 16 h with only ΔFBS medium at 37 °C, 5% CO2. After treatment, cells were either processed with AmB cytotoxicity MTT assay or lysed as described for cholesterol content measurement.
(§4) All mathematical and statistical analysis was performed using the GraphPad Prism 7 software package (GraphPad). For IC50 value determination, a nonlinear fit (inhibitor vs. normalized response with variable slope) of cell viability in the function of AmB decreased concentrations was applied. The statistical significance of differences was assessed either by two-way ANOVA or by t test. For all tests, the significance level (alpha, α) was set to 0.05. Significant differences are indicated in individual graphs with p values as follows: ****p < 0.0001, ***p < 0.001, **p < 0.01, *p < […]. If the differences were not significant, nothing is stated. For each result, an appropriate description of the analysis appears in the figure legend.

A1G cells [4] = assay: AmB cytotoxicity, MTT assay in A1G cells (CHO-K1 stably expressing ABCA1-GFP); assay type: cell-based, Chinese hamster; details: Cricetulus griseus, ± SE
Protocol: as §2, §3, §4

Raw 264.7 macrophages = assay: AmB cytotoxicity, MTT assay in Raw 264.7 macrophages; assay type: cell-based, murine; details: Mus musculus, RAW264.7, AmB 3 h, read-out: IC50 (cell viability, MTT)
Protocol: (§5) A1G and MMG cell lines, mock and GW3965-treated macrophages were seeded in triplicate in 96-well plates at 1 × 10^4 cells/well for CHO cells and 2 × 10^4 cells for Raw 264.7 macrophages and incubated in complete Ham’s F-12 medium at 37 °C, 5% CO2 overnight to allow the cells to attach to the plate. The medium was then removed, AmB was added in complete Ham’s F-12 medium (or in ΔFBS medium, see next paragraph) in different concentrations (from 0 to 40 µg/mL) and cells were incubated for 3 h at 37 °C. For probucol treatment, the cells were preincubated with 10 µM probucol in complete Ham’s F-12 medium at 37 °C, 5% CO2 for 2 h. Then, the medium was removed and AmB was added in different concentrations (from 0 to 40 µg/mL) in complete Ham’s F-12 medium containing 10 µM probucol and cells were incubated for additional 3 h at 37 °C, 5% CO2. […] Plates were shaken for 10 min before reading them on a UVM 340 microplate reader (Biogenet) at 550 nm with a reference wavelength of 630 nm. […]
(§6) All mathematical and statistical analysis was performed using the GraphPad Prism 7 software package (GraphPad). […] The statistical significance of differences was assessed either by two-way ANOVA or by t test. […]
Cells were exposed to increased concentrations of AmB, ranging from 0 to 40 µg/mL, for 3 h and then the viability was analyzed by MTT assay. […]

CHO-K1 wild-type cells = assay: AmB cytotoxicity, MTT assay in CHO-K1 wild-type cells; assay type: cell-based, Chinese hamster; details: Cricetulus griseus, AmB 3 h, read-out: IC50 (cell viability, MTT)
Protocol: as §5, with “CO2. After incubation, the medium was removed and 3-[4,5-dimethylthiazol-2-yl]-2,5-diphenyltetrazolium bromide (MTT, 0.5 mg/mL, Sigma-Aldrich) in complete Ham’s F-12 was added.” for “CO2.”
as §6

**Q.** With `C=C(CC[C@]12O[C@H](C(=O)O)[C@@](O)(C(=O)O)[C@](C(=O)O)(O1)[C@H](OC(=O)/C=C/[C@@H](C)C[C@@H](C)CC)[C@H]2O)[C@@H](OC(C)=O)[C@H](C)Cc1ccccc1` [zaragozic acid] as the molecule, how does the “decrease of total cellular cholesterol content” value (A1G and MMG cell lines) read?
**A.** approximately 50%

**Q.** `C[C@@H]1[C@H](O)[C@@H](C)/C=C/C=C/C=C/C=C/C=C/C=C/C=C/[C@H](O[C@@H]2O[C@H](C)[C@@H](O)[C@H](N)[C@@H]2O)C[C@@H]2O[C@](O)(C[C@@H](O)C[C@@H](O)[C@H](O)CC[C@@H](O)C[C@@H](O)CC(=O)O[C@H]1C)C[C@H](O)[C@H]2C(=O)O` [AmB, Amphotericin B] was tested. Which “[3H]-cholesterol efflux to AmB” value (MMG cells [1]) did it give?
**A.** 0.3%

**Q.** And the “[3H]-cholesterol efflux to AmB” value (A1G cells [2])?
**A.** 5.1%

**Q.** What about the IC50 (MMG cells [3]; CHO-K1, 3 h, MMG, complete Ham's F12 medium, AmB 3 h) of the same molecule?
**A.** 13.1 ± 1 µg/mL (≈ 14.2 µM)

**Q.** What about the IC50 (MMG cells [3]; CHO-K1, 6 h, MMG, complete Ham's F12 medium, 6 h AmB) of the same molecule?
**A.** 10.6 ± 0.48 µg/mL (≈ 11.5 µM)

**Q.** What about the IC50 (MMG cells [3]; CHO-K1, 16 h, MMG, complete Ham's F12 medium, 16 h AmB) of the same molecule?
**A.** 6.65 ± 0.28 µg/mL (≈ 7.2 µM)

**Q.** And the IC50 (MMG cells [3]; CHO-K1, 16 h, MMG, ΔFBS medium + 10 µM zaragozic acid (ZA) 16 h)?
**A.** 10 ± 0.67 µg/mL

**Q.** And the IC50 (MMG cells [3]; CHO-K1, MMG, complete Ham's F12 + 10 µM probucol (2 h pretreatment), AmB 3 h)?
**A.** 9.47 ± 0.31 µg/mL

**Q.** And the IC50 (MMG cells [3]; CHO-K1, MMG, ΔFBS medium (delipidated serum))?
**A.** 10.2 ± 0.42 µg/mL (≈ 11 µM)

**Q.** And the IC50 (MMG cells [3]; CHO-K1, MMG, ΔFBS medium + ZA, reloaded with cholesterol (MβCD complex))?
**A.** 6.42 ± 0.38 µg/mL

**Q.** And the IC50 (A1G cells [4]; CHO-K1, 3 h, A1G, complete Ham's F12 medium, AmB 3 h)?
**A.** 39.2 ± 4.49 µg/mL (≈ 42.4 µM)

**Q.** And the IC50 (A1G cells [4]; CHO-K1, 6 h, A1G, complete Ham's F12 medium, 6 h AmB)?
**A.** 30.9 ± 1.66 µg/mL (≈ 33.5 µM)

**Q.** What about the IC50 (A1G cells [4]; CHO-K1, 16 h, A1G, complete Ham's F12 medium, 16 h AmB) of the same molecule?
**A.** 11.4 ± 0.35 µg/mL (≈ 12.4 µM)

**Q.** What about the IC50 (A1G cells [4]; CHO-K1, 16 h, A1G, ΔFBS medium + 10 µM zaragozic acid (ZA) 16 h) of the same molecule?
**A.** 9.75 ± 0.53 µg/mL

**Q.** And the IC50 (A1G cells [4]; CHO-K1, A1G, complete Ham's F12 + 10 µM probucol (2 h pretreatment), AmB 3 h)?
**A.** 14.4 ± 0.36 µg/mL

**Q.** What about the IC50 (A1G cells [4]; CHO-K1, A1G, ΔFBS medium (delipidated serum)) of the same molecule?
**A.** 21.2 ± 1.09 µg/mL (≈ 22.9 µM)

**Q.** And the IC50 (A1G cells [4]; CHO-K1, A1G, ΔFBS medium + ZA, reloaded with cholesterol (MβCD complex))?
**A.** 18.9 ± 0.77 µg/mL

**Q.** What about the IC50 (Raw 264.7 macrophages; Raw 264.7 cells induced with 1 µM GW3965 for 24 h (ABCA1 expression)) of the same molecule?
**A.** 14.6 µg/mL (≈ 15.7 µM)

**Q.** And the IC50 (Raw 264.7 macrophages; mock (DMSO) control Raw 264.7 cells)?
**A.** 6.18 µg/mL (≈ 6.69 µM)

**Q.** What about the IC50 (CHO-K1 wild-type cells) of the same molecule?
**A.** 16.8 µg/mL (≈ 18.1 µM)
